EP4813989A1, “CRYSTAL, PHARMACEUTICAL COMPOSITION, PREPARATION METHOD THEREFOR, AND USE THEREOF” (TYK Medicines, Inc., priority 2023, dated 2025)

Legend:
Assay type in all cases: physicochemical
[1] = Light exposure test, related substances by HPLC; conditions: for Impurity content RRT0.55 / Impurity content RRT0.66 / Impurity content RRT0.71 / Impurity content RRT0.94 / Impurity content RRT1.02 / Impurity content RRT1.06 / Impurity content RRT1.08 / Impurity content RRT1.15 / Total impurities: 4500lx±500lx, open
Text: An investigation method for the light exposure test can be seen in Table 13 below.
Results of related substances in each crystal form under the light exposure condition (4500lx±500lx) can be seen in Table 17.
HPLC detection results of related substances under the light exposure condition can be seen as follows: Table 17

[2] = Accelerated test, related substances by HPLC; conditions: 40°C±2°C, 75%RH±5%RH; for Impurity content RRT0.55 / Impurity content RRT0.66 / Impurity content RRT0.71 / Impurity content RRT0.94 / Impurity content RRT1.02 / Impurity content RRT1.06 / Impurity content RRT1.08 / Impurity content RRT1.15 / Total impurities: open
Procedure: An investigation method for the accelerated test can be seen in Table 14 below.
Change results of related substances in each crystal form under the accelerated condition (40°C±2°C, 75%RH±5%RH) can be seen in Table 18.
HPLC detection results of related substances under the accelerated condition can be seen as follows: Table 18

[3] = Flowability test (angle of repose); conditions: listed as amorphous sample
Procedure: A flowability determination method was as follows: an angle of repose was determined by using a device composed of 2 to 3 funnels connected in series in a staggered manner, and drug powder was slowly and uniformly passed through the funnels onto a stationary base with a diameter d, so as to form a symmetric powder pile with a single layer of powder at the bottom. During the formation of the powder pile, a height of the funnels was maintained within 2-4 cm from a top of the powder pile, a height h of the cone was determined, and the angle of repose was calculated as tanθ=h/(d/2).

[4] = Dynamic vapor sorption (DVS) hygroscopicity
Procedure: Dynamic vapor sorption (DVS) was used to investigate hygroscopicities of an active pharmaceutical ingredient in different crystal forms.
Determination method: • instrument: dynamic vapor sorption analyzer; temperature: 25°C; protective gas and flow rate: N2, 200 mL/min; • dm/dt: 0.002%/min; RH range: 0%RH-100%RH; cycle: 1 full cycle.

[5] = High-humidity test, related substances by HPLC; conditions: 90%RH±5%RH; for Impurity content RRT0.55 / Impurity content RRT0.66 / Impurity content RRT0.71 / Impurity content RRT0.94 / Impurity content RRT1.02 / Impurity content RRT1.06 / Impurity content RRT1.08 / Impurity content RRT1.15 / Total impurities: open
Text: An investigation method for the high-humidity test can be seen in Table 12 below.
Results of related substances in each crystal form under the high-humidity condition (90%RH±5%RH) can be seen in Table 16.
HPLC detection results of related substances under the high-humidity condition can be seen as follows: Table 16

For C[C@@H](Nc1ccn2ncc(C3=NOC(C)(C)N3)c2n1)c1cc(F)cc(F)c1F [amorphous form], the “Increase of impurity RRT0.66 content” value ([1]; 4500 lx±500 lx, 32 days) was 0.03%, the “Increase of impurity RRT0.71 content” value ([1]; 4500 lx±500 lx, 32 days) was 0.05% and the “Increase of impurity RRT1.02 content” value ([1]; 4500 lx±500 lx, 32 days) was 0.06%. For the same molecule, the “Increase of impurity RRT1.08 content” value ([1]; 4500 lx±500 lx, 32 days) was 0.19%, the “Increase of total impurities” value ([1]; 4500 lx±500 lx, 32 days) was 0.37% and the “Impurity content RRT0.55” value ([1]; 0 day) was 0.03%. The “Impurity content RRT0.66” value ([1]; 0 day) was 0.20%, the “Impurity content RRT0.71” value ([1]; 0 day) was 0.16% and the “Impurity content RRT0.94” value ([1]; 0 day) was 0.04%. The “Impurity content RRT1.02” value ([1]; 0 day) was 0.29%, the “Impurity content RRT1.06” value ([1]; 0 day) was 0.07% and the “Impurity content RRT1.08” value ([1]; 0 day) was 0.18%. For the same molecule, the “Impurity content RRT1.15” value ([1]; 0 day) was 0.04%, the Total impurities ([1]; 0 day) was 1.01% and the “Impurity content RRT0.55” value ([1]; 5 days) was 0.04%. The “Impurity content RRT0.66” value ([1]; 5 days) was 0.20%, the “Impurity content RRT0.71” value ([1]; 5 days) was 0.17% and the “Impurity content RRT0.94” value ([1]; 5 days) was 0.03%. For the same molecule, the “Impurity content RRT1.02” value ([1]; 5 days) was 0.32%, the “Impurity content RRT1.06” value ([1]; 5 days) was 0.08% and the “Impurity content RRT1.08” value ([1]; 5 days) was 0.21%. The “Impurity content RRT1.15” value ([1]; 5 days) was 0.04%, the Total impurities ([1]; 5 days) was 1.09% and the “Impurity content RRT0.55” value ([1]; 11 days) was 0.03%. The “Impurity content RRT0.66” value ([1]; 11 days) was 0.21%, the “Impurity content RRT0.71” value ([1]; 11 days) was 0.17% and the “Impurity content RRT0.94” value ([1]; 11 days) was 0.03%. The “Impurity content RRT1.02” value ([1]; 11 days) was 0.33%, the “Impurity content RRT1.06” value ([1]; 11 days) was 0.09% and the “Impurity content RRT1.08” value ([1]; 11 days) was 0.28%. The “Impurity content RRT1.15” value ([1]; 11 days) was 0.03%, the Total impurities ([1]; 11 days) was 1.17% and the “Impurity content RRT0.55” value ([1]; 32 days) was 0.05%. For the same molecule, the “Impurity content RRT0.66” value ([1]; 32 days) was 0.23%, the “Impurity content RRT0.71” value ([1]; 32 days) was 0.21% and the “Impurity content RRT0.94” value ([1]; 32 days) was 0.06%. The “Impurity content RRT1.02” value ([1]; 32 days) was 0.35%, the “Impurity content RRT1.06” value ([1]; 32 days) was 0.07% and the “Impurity content RRT1.08” value ([1]; 32 days) was 0.37%. The “Impurity content RRT1.15” value ([1]; 32 days) was 0.05%, the Total impurities ([1]; 32 days) was 1.38% and the “Increase of impurity RRT1.08 content” value ([2]; 32 days) was 0.03%. The “Impurity content RRT0.55” value ([2]; 0 day) was 0.03%, the “Impurity content RRT0.66” value ([2]; 0 day) was 0.20% and the “Impurity content RRT0.71” value ([2]; 0 day) was 0.16%. For the same molecule, the “Impurity content RRT0.94” value ([2]; 0 day) was 0.04%, the “Impurity content RRT1.02” value ([2]; 0 day) was 0.29% and the “Impurity content RRT1.06” value ([2]; 0 day) was 0.07%. For the same molecule, the “Impurity content RRT1.08” value ([2]; 0 day) was 0.18%, the “Impurity content RRT1.15” value ([2]; 0 day) was 0.04% and the Total impurities ([2]; 0 day) was 1.01%. The “Impurity content RRT0.55” value ([2]; 5 days) was 0.04%, the “Impurity content RRT0.66” value ([2]; 5 days) was 0.20% and the “Impurity content RRT0.71” value ([2]; 5 days) was 0.17%. The “Impurity content RRT0.94” value ([2]; 5 days) was 0.03%, the “Impurity content RRT1.02” value ([2]; 5 days) was 0.32% and the “Impurity content RRT1.06” value ([2]; 5 days) was 0.08%. For the same molecule, the “Impurity content RRT1.08” value ([2]; 5 days) was 0.22%, the “Impurity content RRT1.15” value ([2]; 5 days) was 0.04% and the Total impurities ([2]; 5 days) was 1.09%. For the same molecule, the “Impurity content RRT0.55” value ([2]; 11 days) was 0.03%, the “Impurity content RRT0.66” value ([2]; 11 days) was 0.20% and the “Impurity content RRT0.71” value ([2]; 11 days) was 0.17%. The “Impurity content RRT0.94” value ([2]; 11 days) was 0.03%, the “Impurity content RRT1.02” value ([2]; 11 days) was 0.31% and the “Impurity content RRT1.06” value ([2]; 11 days) was 0.08%. For the same molecule, the “Impurity content RRT1.08” value ([2]; 11 days) was 0.24%, the “Impurity content RRT1.15” value ([2]; 11 days) was 0.03% and the Total impurities ([2]; 11 days) was 1.10%. The “Impurity content RRT0.55” value ([2]; 32 days) was 0.04%, the “Impurity content RRT0.66” value ([2]; 32 days) was 0.20% and the “Impurity content RRT0.71” value ([2]; 32 days) was 0.18%. For the same molecule, the “Impurity content RRT0.94” value ([2]; 32 days) was 0.04%, the “Impurity content RRT1.02” value ([2]; 32 days) was 0.29% and the “Impurity content RRT1.06” value ([2]; 32 days) was 0.06%. For the same molecule, the “Impurity content RRT1.08” value ([2]; 32 days) was 0.21%, the “Impurity content RRT1.15” value ([2]; 32 days) was 0.03% and the Total impurities ([2]; 32 days) was 1.05%. The angle of repose [3] was “approximately 37.5 °”, the “Hygroscopicity (conclusion)” value [4] was “had hygroscopicity” and the DVS weight gain ([4]; humidity increased from 90% to 100%) was “approximately 3.5%”. For the same molecule, the DVS weight loss ([4]; humidity reduced from 100% to 90%) was “approximately 1.5%”, the “Increase of impurity RRT1.02 content” value ([5]; 32 days) was 0.03% and the “Increase of impurity RRT1.08 content” value ([5]; 32 days) was 0.05%. The “Increase of total impurities” value ([5]; 32 days) was 0.10%, the “Impurity content RRT0.55” value ([5]; 0 day) was 0.03% and the “Impurity content RRT0.66” value ([5]; 0 day) was 0.20%. For the same molecule, the “Impurity content RRT0.71” value ([5]; 0 day) was 0.16%, the “Impurity content RRT0.94” value ([5]; 0 day) was 0.04% and the “Impurity content RRT1.02” value ([5]; 0 day) was 0.29%. The “Impurity content RRT1.06” value ([5]; 0 day) was 0.07%, the “Impurity content RRT1.08” value ([5]; 0 day) was 0.18% and the “Impurity content RRT1.15” value ([5]; 0 day) was 0.04%. For the same molecule, the Total impurities ([5]; 0 day) was 1.01%, the “Impurity content RRT0.55” value ([5]; 5 days) was 0.03% and the “Impurity content RRT0.66” value ([5]; 5 days) was 0.21%. The “Impurity content RRT0.71” value ([5]; 5 days) was 0.17%, the “Impurity content RRT0.94” value ([5]; 5 days) was 0.03% and the “Impurity content RRT1.02” value ([5]; 5 days) was 0.31%. For the same molecule, the “Impurity content RRT1.06” value ([5]; 5 days) was 0.09%, the “Impurity content RRT1.08” value ([5]; 5 days) was 0.19% and the “Impurity content RRT1.15” value ([5]; 5 days) was 0.04%. The Total impurities ([5]; 5 days) was 1.07%, the “Impurity content RRT0.55” value ([5]; 11 days) was 0.03% and the “Impurity content RRT0.66” value ([5]; 11 days) was 0.20%. The “Impurity content RRT0.71” value ([5]; 11 days) was 0.16%, the “Impurity content RRT0.94” value ([5]; 11 days) was 0.03% and the “Impurity content RRT1.02” value ([5]; 11 days) was 0.31%. The “Impurity content RRT1.06” value ([5]; 11 days) was 0.09%, the “Impurity content RRT1.08” value ([5]; 11 days) was 0.25% and the “Impurity content RRT1.15” value ([5]; 11 days) was 0.03%. For the same molecule, the Total impurities ([5]; 11 days) was 1.11%, the “Impurity content RRT0.55” value ([5]; 32 days) was 0.03% and the “Impurity content RRT0.66” value ([5]; 32 days) was 0.20%. For the same molecule, the “Impurity content RRT0.71” value ([5]; 32 days) was 0.18%, the “Impurity content RRT0.94” value ([5]; 32 days) was 0.04% and the “Impurity content RRT1.02” value ([5]; 32 days) was 0.31%. The “Impurity content RRT1.06” value ([5]; 32 days) was 0.06%, the “Impurity content RRT1.08” value ([5]; 32 days) was 0.23% and the “Impurity content RRT1.15” value ([5]; 32 days) was 0.05%. For the same molecule, the Total impurities ([5]; 32 days) was 1.11%.
